# Measured values taken from patent US10844411B2, “Inhibitors of sterol metabolism for their use to accumulate triglycerides in microalgae, and methods thereof” (Commissariat A L'energie Atomique Et Aux Energies …, priority 2014, dated 2020).
# System: Nannochloropsis gaditana
# Experiment: Nile Red staining of oil accumulation in Nannochloropsis gaditana incubated with inhibitors of sterol metabolism
# Type: cell-based
# Conditions: ESAW 1N1P and ESAW 10N10P media; time course at least 7 days; FIGS. 5 and 6
# Experimental: Experiments were performed in two different conditions of Nannochloropsis gaditana: cells were either cultured in ESAW containing 47 mg·L^−1 NaNO3 and 3 mg·L^−1 NaH2PO4 (medium 1N1P), or 470 mg/L NaNO3 and 30 mg·L^−1NaH2PO4) (medium 10N10P). Cells in an exponential growth phase were collected via centrifugation at 3500 rpm for 10 minutes. The supernatant was discarded and the cells were resuspended in the same volume of ESAW medium (either 1N1P or 10N10P). The cultures were centrifuged again at 3500 rpm, for 10 minutes, and the supernatant was discarded. The pellet was resuspended in ESAW (either 1N1P or 10N10P) to obtain a concentration of 2×10^6 cells/mL. […]
# Each day, an aliquot was taken from each flask in order to perform a Nile Red stain and cell counts. […] In order to detect any background noise, fluorescence was measured at excitation and emission of 530 nm and 580 nm, respectively. […] After 20 minutes of incubation, Nile Red fluorescence was measured at excitation and emission of 530 nm and 580 nm, respectively.
# Nile Red Fluorescence was normalized by calculating the relative fluorescence units per million cells. Results were expressed as a percentage of Nile Red fluorescence of Nannochloropsis gaditana cultured in complete medium (either ESAW (10N10P) or ESAW (1N1P)).
row,Compound,accumulation of oil (Nile Red fluorescence per million cells)
1,C#C[C@]1(O)CC[C@H]2[C@@H]3CCc4cc(O)ccc4[C@H]3CC[C@@]21C [Ethinylestradiol],trigger the accumulation of oil
2,CN(Cc1ccc(C(C)(C)C)cc1)Cc1cccc2ccccc12 [Butenafine],trigger the accumulation of oil
